Source: the supplement of paper PMC10307832

Experiments:
Experiment in all cases: relative viability (nuclei count vs DMSO), 5 days (fraction); higher = more cells survive
Midostaurin + Lapatinib = compound: CO[C@@H]1[C@H](N(C)C(=O)c2ccccc2)C[C@H]2O[C@]1(C)n1c3ccccc3c3c4c(c5c6ccccc6n2c5c31)C(=O)NC4 [Midostaurin] + CS(=O)(=O)CCNCc1ccc(-c2ccc3ncnc(Nc4ccc(OCc5cccc(F)c5)c(Cl)c4)c3c2)o1 [Lapatinib] (partner 2 µM)
Outline: (§1)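 Nuclei were stained with Hoechst during a one-step fixation (final 0.05% Triton X-100, 1% formaldehyde, 1 ug/ml Hoechst) carried out 5 days after dosing, then counted on 4× images. The cells, lung cancer lines in 1536-well plates, had been dosed by pin tool the day after seeding with one drug alone or a fixed anchor-drug dose plus five library-drug doses (not always all listed) in √10 steps. Relative viability is the nuclei count in treated wells divided by that in vehicle wells, and each value is the median of duplicate plates.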

Midostaurin + Vorinostat = compound: CO[C@@H]1[C@H](N(C)C(=O)c2ccccc2)C[C@H]2O[C@]1(C)n1c3ccccc3c3c4c(c5c6ccccc6n2c5c31)C(=O)NC4 [Midostaurin] + O=C(CCCCCCC(=O)Nc1ccccc1)NO [Vorinostat] (partner 1 µM)
Outline: as §1

[1] = compound: COc1cc(-c2nn([C@H]3CC[C@H](N4CCN(C(C)=O)CC4)CC3)c3ncnc(N)c23)ccc1NC(=O)c1cc2ccccc2n1C + CC(=O)c1c(C)c2cnc(Nc3ccc(N4CCNCC4)cn3)nc2n(C2CCCC2)c1=O [Palbociclib] (partner 0.5 µM)
Outline: as §1

[2] = compound: COc1cc(-c2nn([C@H]3CC[C@H](N4CCN(C(C)=O)CC4)CC3)c3ncnc(N)c23)ccc1NC(=O)c1cc2ccccc2n1C + Cc1nc(Nc2ncc(C(=O)Nc3c(C)cccc3Cl)s2)cc(N2CCN(CCO)CC2)n1 [Dasatinib] (partner 0.075 µM)
Outline: as §1

[3] = compound: COc1cc(-c2nn([C@H]3CC[C@H](N4CCN(C(C)=O)CC4)CC3)c3ncnc(N)c23)ccc1NC(=O)c1cc2ccccc2n1C + N=C(N)NC(=N)NCCc1ccccc1 [Phenformin] (partner 250 µM)
Outline: as §1

| Cell Line | relative viability (Midostaurin + Lapatinib; first compound 0.01 µM) | relative viability (Midostaurin + Lapatinib; first compound 0.03162 µM) | relative viability (Midostaurin + Lapatinib; first compound 0.1 µM) | relative viability (Midostaurin + Lapatinib; first compound 0.3162 µM) | relative viability (Midostaurin + Vorinostat; first compound 0.01 µM) | relative viability (Midostaurin + Vorinostat; first compound 0.03162 µM) | relative viability (Midostaurin + Vorinostat; first compound 0.1 µM) | relative viability (Midostaurin + Vorinostat; first compound 0.3162 µM) | relative viability ([1]; first compound 0.0128 µM) | relative viability ([1]; first compound 0.04048 µM) | relative viability ([1]; first compound 0.128 µM) | relative viability ([1]; first compound 1.28 µM) | relative viability ([2]; first compound 0.0128 µM) | relative viability ([2]; first compound 0.04048 µM) | relative viability ([2]; first compound 0.128 µM) | relative viability ([2]; first compound 1.28 µM) | relative viability ([3]; first compound 0.0128 µM) | relative viability ([3]; first compound 0.04048 µM) | relative viability ([3]; first compound 0.128 µM) | relative viability ([3]; first compound 1.28 µM) |
| --- | --- | --- | --- | --- | --- | --- | --- | --- | --- | --- | --- | --- | --- | --- | --- | --- | --- | --- | --- | --- |
| NCI-H23 | 1.05 | 1 | 1 | 0.949 | 0.514 | 0.68 | 0.54 | 0.243 | 0.47 | 0.519 | 0.508 | 0.4 | 0.736 | 0.469 | 0.778 | 0.741 | 0.765 | 0.835 | 0.805 | 0.717 |
| LCLC-97TM1 | 0.73 |  | 0.846 | 1.12 | 0.668 | 0.534 | 0.635 | 0.756 | 0.22 | 0.194 | 0.241 | 0.191 | 0.97 | 0.348 | 0.789 | 0.697 | 0.501 | 0.377 | 0.461 | 0.416 |
| EPLC-272H | 0.918 | 0.867 | 0.75 | 0.855 | 0.47 | 0.436 | 0.426 | 0.393 | 0.352 | 0.327 | 0.337 | 0.301 | 0.407 |  | 0.391 | 0.347 | 0.46 |  | 0.27 | 0.282 |
| NCI-H1915 | 0.865 | 0.972 | 0.956 | 1.04 | 0.447 | 0.487 | 0.576 | 0.513 | 0.578 | 0.441 | 0.495 | 0.44 | 0.313 | 0.278 | 0.271 | 0.333 | 0.387 | 0.396 | 0.375 | 0.334 |
| NCI-H2405 | 1.03 | 1.27 |  | 1.11 | 1.05 | 1.24 | 1.01 | 1.02 | 0.551 | 0.396 | 0.486 | 0.269 | 0.252 | 0.216 | 0.192 | 0.179 | 0.408 | 0.272 | 0.409 | 0.28 |
| NCI-H322M | 0.621 | 0.465 | 0.627 | 0.695 | 0.877 | 0.849 | 0.994 | 1.28 | 0.426 | 0.516 | 0.434 | 0.394 | 0.262 | 0.256 | 0.234 | 0.253 | 0.815 | 0.816 | 0.743 | 0.553 |
| NCI-H2170 | 0.29 | 0.259 | 0.255 | 0.285 | 0.857 | 0.843 | 0.774 | 0.699 | 0.445 | 0.396 | 0.383 | 0.327 | 0.554 | 0.494 | 0.559 | 0.592 | 0.437 | 0.412 | 0.405 | 0.377 |
| NCI-H1395 | 1.04 | 1.12 | 0.912 | 1.3 | 0.651 | 0.856 | 0.671 | 0.682 | 0.656 | 0.647 | 0.589 | 0.497 | 0.414 | 0.464 | 0.465 | 0.449 | 0.419 | 0.461 | 0.431 | 0.395 |
| NCI-H358 | 0.582 | 0.391 | 0.584 | 0.499 | 0.625 | 0.536 | 0.391 | 0.197 | 0.145 | 0.137 | 0.126 | 0.115 | 0.188 | 0.138 | 0.151 | 0.163 | 0.329 | 0.283 | 0.254 | 0.187 |
| NCI-H838 | 0.955 | 0.92 | 0.897 | 0.452 | 0.72 | 0.705 | 0.606 | 0.262 | 0.222 | 0.208 | 0.216 | 0.181 | 0.304 | 0.261 | 0.276 | 0.342 | 0.694 | 0.53 | 0.509 | 0.388 |
| CAL-12T | 0.726 | 0.447 | 0.603 | 0.498 | 0.689 | 0.742 | 0.734 | 0.457 | 0.485 | 0.277 | 0.459 | 0.24 | 0.418 | 0.252 | 0.487 | 0.436 | 0.588 | 0.465 | 0.572 | 0.416 |
